The source made the active and inactive calls.
What was measured:
[1] = target: T1, RNA-binding protein pos-1 (Caenorhabditis elegans, UniProt G5EF15); test: disruptors of C. elegans POS-1 RNA interaction – biochemical, fluorescence polarization, dose response (AID 1964);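 also: purified POS-1 fused to maltose binding protein made in E. coli; potency of compounds blocking POS-1 binding to fluorescent RNA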
T1 sequence (G5EF15 whole entry): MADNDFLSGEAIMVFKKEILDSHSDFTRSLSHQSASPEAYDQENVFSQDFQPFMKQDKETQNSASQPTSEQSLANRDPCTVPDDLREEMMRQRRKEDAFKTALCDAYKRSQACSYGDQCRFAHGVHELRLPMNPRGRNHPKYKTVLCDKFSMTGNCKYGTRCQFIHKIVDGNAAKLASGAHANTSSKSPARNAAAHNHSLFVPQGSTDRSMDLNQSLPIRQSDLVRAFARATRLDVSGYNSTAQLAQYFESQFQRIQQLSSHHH

[2] = target: T2, Zinc finger protein mex-5 (Caenorhabditis elegans, UniProt Q9XUB2); test: potency of MEX-5 RNA-binding blockers – biochemical, C. elegans, fluorescence polarization, dose response (AID 1960)
T2 sequence (Q9XUB2 whole entry): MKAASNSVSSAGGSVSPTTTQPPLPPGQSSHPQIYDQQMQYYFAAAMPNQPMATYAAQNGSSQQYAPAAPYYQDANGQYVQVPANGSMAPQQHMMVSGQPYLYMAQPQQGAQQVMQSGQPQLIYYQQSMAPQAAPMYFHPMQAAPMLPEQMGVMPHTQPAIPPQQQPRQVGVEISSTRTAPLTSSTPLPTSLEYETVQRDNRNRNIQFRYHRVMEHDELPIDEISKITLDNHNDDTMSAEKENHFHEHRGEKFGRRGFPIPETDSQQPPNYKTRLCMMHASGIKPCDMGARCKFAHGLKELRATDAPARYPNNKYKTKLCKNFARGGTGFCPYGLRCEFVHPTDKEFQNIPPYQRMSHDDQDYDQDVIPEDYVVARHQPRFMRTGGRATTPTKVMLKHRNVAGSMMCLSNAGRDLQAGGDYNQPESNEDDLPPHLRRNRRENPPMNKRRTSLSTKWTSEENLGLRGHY

[3] = target: Intestinal-type alkaline phosphatase (Mus musculus, UniProt P24822); test: PubChem AID 488785; format: functional
[4] = target: T3, Heat shock factor protein 1 (Mus musculus, UniProt P38532); test: enhancement of HSF1-driven luciferase signal – cell-based, NIH3T3, luminescence, dose retest, confirmation (AID 435004); format: functional;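 also: stress induced by proteasome inhibitor MG132 added 30 min after compound; luciferase reporter driven by HSF1 response element in NIH3T3 cells; actives raise luminescence as potentiators of the MG132 stress response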
T3 sequence (P38532 whole entry): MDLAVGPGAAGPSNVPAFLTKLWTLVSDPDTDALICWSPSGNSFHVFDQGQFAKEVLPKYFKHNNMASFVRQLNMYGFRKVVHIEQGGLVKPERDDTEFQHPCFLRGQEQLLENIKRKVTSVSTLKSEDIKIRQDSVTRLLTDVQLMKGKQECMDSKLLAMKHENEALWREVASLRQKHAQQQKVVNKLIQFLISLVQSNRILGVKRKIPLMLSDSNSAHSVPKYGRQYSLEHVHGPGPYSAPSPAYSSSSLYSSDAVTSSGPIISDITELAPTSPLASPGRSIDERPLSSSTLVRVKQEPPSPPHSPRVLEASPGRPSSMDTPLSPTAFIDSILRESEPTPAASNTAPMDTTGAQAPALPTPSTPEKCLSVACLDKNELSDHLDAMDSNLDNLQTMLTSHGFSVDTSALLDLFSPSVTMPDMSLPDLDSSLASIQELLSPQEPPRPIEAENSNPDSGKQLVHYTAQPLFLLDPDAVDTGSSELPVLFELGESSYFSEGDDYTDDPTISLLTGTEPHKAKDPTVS

[5] = target: T4, Alkaline phosphatase, tissue-nonspecific isozyme (Homo sapiens, UniProt P05186); test: TNAP enzyme inhibition by screening hits, dose response, selectivity assay for mouse IAP inhibitor project, biochemical, human TNAP, uHTS hits (AID 488906); format: functional
T4 sequence (P05186 whole entry): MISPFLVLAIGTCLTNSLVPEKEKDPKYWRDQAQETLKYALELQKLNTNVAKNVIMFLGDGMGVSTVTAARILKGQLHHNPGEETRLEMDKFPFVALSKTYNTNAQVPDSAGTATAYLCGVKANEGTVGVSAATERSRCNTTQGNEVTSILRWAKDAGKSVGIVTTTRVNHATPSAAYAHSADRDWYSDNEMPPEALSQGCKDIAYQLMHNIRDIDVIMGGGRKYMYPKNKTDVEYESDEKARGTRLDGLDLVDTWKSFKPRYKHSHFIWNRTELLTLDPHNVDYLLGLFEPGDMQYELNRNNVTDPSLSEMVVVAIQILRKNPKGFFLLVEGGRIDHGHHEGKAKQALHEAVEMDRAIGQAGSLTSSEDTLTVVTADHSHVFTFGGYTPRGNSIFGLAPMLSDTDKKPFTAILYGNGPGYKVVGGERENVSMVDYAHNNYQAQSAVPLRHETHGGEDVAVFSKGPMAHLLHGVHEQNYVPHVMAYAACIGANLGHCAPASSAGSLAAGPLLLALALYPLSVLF

[6] = target: Intestinal-type alkaline phosphatase (Homo sapiens, UniProt P09923); test: inhibition of human intestinal alkaline phosphatase – biochemical, dose response (AID 488876); format: functional
Genome polyprotein = Genome polyprotein (dengue virus type 2, UniProt P29990); test: flavivirus cap methylation enzyme inhibition – biochemical, confirmation dose response, primary screen (AID 588689); format: functional
Aspartyl aminopeptidase = target: T5, Aspartyl aminopeptidase (Plasmodium falciparum 3D7, UniProt Q8I2J3)
T5 sequence (Q8I2J3 whole entry): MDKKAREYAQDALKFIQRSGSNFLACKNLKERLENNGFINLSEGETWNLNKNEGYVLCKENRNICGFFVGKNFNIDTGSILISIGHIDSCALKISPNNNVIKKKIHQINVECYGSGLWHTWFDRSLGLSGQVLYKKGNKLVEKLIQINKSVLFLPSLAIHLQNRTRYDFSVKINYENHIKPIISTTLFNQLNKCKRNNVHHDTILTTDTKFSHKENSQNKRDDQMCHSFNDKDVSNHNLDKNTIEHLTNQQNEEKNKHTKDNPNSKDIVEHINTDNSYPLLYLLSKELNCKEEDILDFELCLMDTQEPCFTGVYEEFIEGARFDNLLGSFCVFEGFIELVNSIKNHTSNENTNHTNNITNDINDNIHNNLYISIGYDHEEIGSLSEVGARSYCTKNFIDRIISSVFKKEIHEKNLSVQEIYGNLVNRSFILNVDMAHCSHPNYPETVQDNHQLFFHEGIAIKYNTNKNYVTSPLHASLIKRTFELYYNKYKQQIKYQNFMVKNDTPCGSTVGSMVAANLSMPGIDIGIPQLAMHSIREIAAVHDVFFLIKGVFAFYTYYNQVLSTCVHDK

Procathepsin L = Procathepsin L (Homo sapiens, UniProt P07711)
Large T antigen = Large T antigen (Simian virus 40, UniProt P03070); format: functional, Betapolyomavirus macacae;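 also: Confirmatory-stage PubChem screen for compounds that inhibit SV40 T antigen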
[7] = target: FAD-linked sulfhydryl oxidase ALR (Homo sapiens, UniProt P55789); test: ALR-catalysed DTT oxidation blockers – biochemical, H2O2 detection, luminescence, cherry-pick, dose response (AID 493248)
[8] = target: T6, Carboxy-terminal domain RNA polymerase II polypeptide A small phosphatase 1 (Homo sapiens, UniProt Q9GZU7); test: CTDSP1 inhibitors, concentration-response, biochemical, absorbance readout, ultra-high-throughput screen actives (AID 540297); format: functional
T6 sequence (Q9GZU7 whole entry): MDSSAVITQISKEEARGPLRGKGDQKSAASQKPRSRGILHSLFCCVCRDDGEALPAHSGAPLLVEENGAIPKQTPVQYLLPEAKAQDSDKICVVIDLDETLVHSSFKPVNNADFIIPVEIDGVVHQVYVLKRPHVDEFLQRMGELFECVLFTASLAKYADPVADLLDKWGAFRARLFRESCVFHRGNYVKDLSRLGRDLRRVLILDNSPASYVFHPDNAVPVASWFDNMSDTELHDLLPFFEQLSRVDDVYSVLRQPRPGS

Tumor necrosis factor = Tumor necrosis factor (Homo sapiens, UniProt P01375); test: analog potency on TNFa NF-kB signaling – cell-based, revised, SAR follow-up (AID 2337); format: functional
[9] = target: T7, Nucleotide-binding oligomerization domain-containing protein 1 (Homo sapiens, UniProt Q9Y239); test: blockers of NOD1 pathway activity – revised, SAR follow-up (AID 2333); format: functional
T7 sequence (Q9Y239 whole entry): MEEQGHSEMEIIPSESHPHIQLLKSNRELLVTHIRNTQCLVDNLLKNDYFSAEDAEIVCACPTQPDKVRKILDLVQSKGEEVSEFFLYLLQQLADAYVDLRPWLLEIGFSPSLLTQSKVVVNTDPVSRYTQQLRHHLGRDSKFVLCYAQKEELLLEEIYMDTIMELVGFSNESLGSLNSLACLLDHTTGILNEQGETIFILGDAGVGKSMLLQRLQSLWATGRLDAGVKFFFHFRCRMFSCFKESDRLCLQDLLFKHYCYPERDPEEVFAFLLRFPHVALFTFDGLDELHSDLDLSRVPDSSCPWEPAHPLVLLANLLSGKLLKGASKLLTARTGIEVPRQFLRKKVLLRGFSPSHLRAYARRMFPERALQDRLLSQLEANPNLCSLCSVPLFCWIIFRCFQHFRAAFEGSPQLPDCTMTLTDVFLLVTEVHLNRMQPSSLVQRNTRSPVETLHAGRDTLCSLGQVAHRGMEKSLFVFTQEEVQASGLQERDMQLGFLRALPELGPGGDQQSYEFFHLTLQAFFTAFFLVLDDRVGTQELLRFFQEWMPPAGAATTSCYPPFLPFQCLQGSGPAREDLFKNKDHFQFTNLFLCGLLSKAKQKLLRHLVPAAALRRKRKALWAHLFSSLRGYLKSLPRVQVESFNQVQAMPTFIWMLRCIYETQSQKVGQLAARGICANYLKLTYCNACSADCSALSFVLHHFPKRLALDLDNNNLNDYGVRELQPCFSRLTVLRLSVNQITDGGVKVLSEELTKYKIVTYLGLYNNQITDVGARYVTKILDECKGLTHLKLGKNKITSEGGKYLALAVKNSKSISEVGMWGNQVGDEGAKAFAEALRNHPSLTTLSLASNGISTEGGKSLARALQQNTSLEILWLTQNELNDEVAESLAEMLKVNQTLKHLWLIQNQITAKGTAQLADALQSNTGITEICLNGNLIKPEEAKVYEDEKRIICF

HEK293 = test: cells; details: Homo sapiens;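 also: cells exposed to compound for 14 hours overnight before viability readout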

Sequence of Intestinal-type alkaline phosphatase (Homo sapiens, UniProt P09923) (P09923 whole entry): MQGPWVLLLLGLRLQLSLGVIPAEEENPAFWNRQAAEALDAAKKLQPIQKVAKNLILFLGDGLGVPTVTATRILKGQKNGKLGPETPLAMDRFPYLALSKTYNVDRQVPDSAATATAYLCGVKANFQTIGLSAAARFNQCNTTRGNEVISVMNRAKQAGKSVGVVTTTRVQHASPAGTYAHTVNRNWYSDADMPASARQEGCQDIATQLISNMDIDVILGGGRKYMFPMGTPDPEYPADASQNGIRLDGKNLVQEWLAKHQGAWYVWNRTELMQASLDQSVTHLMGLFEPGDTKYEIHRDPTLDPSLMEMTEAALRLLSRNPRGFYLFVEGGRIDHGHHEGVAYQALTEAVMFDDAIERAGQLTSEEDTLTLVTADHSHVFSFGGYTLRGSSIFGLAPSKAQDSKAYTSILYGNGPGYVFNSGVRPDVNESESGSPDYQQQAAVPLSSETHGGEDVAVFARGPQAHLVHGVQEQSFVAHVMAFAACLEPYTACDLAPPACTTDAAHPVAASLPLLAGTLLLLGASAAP
Sequence of Intestinal-type alkaline phosphatase (Mus musculus, UniProt P24822) (P24822 whole entry): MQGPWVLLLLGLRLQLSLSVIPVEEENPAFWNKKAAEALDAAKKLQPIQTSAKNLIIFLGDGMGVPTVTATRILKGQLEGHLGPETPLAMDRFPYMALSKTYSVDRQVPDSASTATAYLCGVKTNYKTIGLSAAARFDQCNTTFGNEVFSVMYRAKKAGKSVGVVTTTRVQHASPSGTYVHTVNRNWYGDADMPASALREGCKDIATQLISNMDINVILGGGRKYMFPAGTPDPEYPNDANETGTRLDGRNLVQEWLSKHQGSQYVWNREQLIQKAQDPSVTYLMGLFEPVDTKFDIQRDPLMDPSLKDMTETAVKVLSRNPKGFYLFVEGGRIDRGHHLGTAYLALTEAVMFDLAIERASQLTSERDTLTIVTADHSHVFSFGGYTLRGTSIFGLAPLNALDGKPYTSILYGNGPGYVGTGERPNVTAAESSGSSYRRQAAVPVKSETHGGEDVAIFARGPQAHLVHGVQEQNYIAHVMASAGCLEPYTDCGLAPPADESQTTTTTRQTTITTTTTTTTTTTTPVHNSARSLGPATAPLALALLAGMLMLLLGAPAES
Sequence of Large T antigen (P03070 whole entry): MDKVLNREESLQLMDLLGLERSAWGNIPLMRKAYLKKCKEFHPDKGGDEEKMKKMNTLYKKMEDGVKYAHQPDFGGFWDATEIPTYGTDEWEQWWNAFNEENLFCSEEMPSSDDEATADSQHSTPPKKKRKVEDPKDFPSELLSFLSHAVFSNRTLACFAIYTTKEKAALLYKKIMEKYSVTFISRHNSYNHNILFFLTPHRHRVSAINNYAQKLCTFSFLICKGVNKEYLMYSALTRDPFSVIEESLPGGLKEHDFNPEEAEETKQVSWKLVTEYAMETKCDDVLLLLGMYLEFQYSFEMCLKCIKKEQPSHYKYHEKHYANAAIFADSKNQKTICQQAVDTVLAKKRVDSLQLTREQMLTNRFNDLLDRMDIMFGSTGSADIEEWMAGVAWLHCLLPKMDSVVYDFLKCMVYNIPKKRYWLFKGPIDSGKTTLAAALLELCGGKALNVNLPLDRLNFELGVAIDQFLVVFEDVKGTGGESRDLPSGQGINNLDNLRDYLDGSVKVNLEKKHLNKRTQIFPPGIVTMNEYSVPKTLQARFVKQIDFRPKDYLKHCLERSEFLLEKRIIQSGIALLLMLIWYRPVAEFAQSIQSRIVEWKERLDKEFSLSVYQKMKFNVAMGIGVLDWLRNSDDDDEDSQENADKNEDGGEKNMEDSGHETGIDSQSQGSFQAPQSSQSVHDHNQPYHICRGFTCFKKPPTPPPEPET
Sequence of Genome polyprotein (P29990 2492-3391 limits assumed): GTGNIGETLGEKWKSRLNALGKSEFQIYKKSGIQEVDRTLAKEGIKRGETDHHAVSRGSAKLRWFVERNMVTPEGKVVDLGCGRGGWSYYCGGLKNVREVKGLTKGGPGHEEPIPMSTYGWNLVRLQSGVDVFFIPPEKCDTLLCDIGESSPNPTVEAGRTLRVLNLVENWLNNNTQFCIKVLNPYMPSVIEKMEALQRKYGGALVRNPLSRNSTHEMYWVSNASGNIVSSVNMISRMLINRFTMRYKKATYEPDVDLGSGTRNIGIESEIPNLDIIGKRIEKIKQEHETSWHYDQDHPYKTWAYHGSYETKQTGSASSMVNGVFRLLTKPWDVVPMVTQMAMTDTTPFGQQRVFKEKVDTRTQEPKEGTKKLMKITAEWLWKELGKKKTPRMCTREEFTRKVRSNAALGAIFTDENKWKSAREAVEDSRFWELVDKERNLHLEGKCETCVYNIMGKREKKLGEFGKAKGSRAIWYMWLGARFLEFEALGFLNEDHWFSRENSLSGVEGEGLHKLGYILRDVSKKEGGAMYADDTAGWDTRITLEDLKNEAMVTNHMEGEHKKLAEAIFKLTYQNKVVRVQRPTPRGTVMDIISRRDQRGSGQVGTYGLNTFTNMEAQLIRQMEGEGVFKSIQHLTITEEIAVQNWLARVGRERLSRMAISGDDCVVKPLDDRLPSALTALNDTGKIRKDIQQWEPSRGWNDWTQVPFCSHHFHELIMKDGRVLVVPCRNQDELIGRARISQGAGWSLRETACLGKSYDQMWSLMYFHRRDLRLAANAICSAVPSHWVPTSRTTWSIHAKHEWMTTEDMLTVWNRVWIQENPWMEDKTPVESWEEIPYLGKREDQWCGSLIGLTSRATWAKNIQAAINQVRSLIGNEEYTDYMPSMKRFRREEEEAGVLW
Sequence of Procathepsin L (P07711 whole entry): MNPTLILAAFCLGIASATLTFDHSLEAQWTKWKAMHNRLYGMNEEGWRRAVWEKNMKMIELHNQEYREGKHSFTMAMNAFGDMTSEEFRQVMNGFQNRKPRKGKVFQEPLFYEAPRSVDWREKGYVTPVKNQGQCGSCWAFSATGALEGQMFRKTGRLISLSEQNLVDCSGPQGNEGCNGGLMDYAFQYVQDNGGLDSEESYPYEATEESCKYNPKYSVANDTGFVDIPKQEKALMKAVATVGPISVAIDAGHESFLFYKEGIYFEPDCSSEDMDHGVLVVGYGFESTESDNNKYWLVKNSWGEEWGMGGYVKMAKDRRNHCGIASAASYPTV
Sequence of FAD-linked sulfhydryl oxidase ALR (P55789 whole entry, the tested form may be a part): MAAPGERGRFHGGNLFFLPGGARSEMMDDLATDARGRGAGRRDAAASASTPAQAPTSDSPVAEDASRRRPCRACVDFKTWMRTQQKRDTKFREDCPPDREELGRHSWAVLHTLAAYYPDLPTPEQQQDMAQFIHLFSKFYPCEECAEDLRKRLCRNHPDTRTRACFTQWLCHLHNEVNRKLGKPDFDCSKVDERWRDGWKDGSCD
Sequence of Tumor necrosis factor (P01375 whole entry, the tested form may be a part): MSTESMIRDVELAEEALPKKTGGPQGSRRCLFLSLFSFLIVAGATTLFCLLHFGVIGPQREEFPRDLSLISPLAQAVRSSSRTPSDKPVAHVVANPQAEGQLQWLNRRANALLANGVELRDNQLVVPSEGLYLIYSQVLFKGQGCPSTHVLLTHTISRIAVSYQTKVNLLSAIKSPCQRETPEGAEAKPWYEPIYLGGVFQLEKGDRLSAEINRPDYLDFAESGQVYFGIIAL

EC50 [1] | EC50 [2] | IC50 [3] | EC50 [4] | IC50 [5] | IC50 [6] | IC50 (Genome polyprotein) | IC50 (Aspartyl aminopeptidase) | IC50 (Procathepsin L) | IC50 (Large T antigen) | AC50 [7] | IC50 [8] | SMILES | IC50 (Tumor necrosis factor) | IC50 [9] | IC50 (HEK293)
14.3 µM (active) | 0.294 µM (inconclusive) | 0.206 µM (active) | > 260 µM (inactive) | 0.211 µM (active) | > 100 µM (inactive) | 61.5 µM (active) | – | – | – | – | – | Cc1ccc(Cl)c2c(C3=NC(=S)NC3=O)c(O)[nH]c12 | – | – | –
– | – | 6.02 µM (active) | – | > 100 µM (inactive) | > 100 µM (inactive) | – | – | – | – | – | – | COc1ccc(C2CC(c3ccccc3Cl)=NN2c2ccc(S(N)(=O)=O)cc2)cc1 (stereo not drawn) | – | – | –
250 µM (active) | 179 µM (active) | 1.04 µM (active) | – | 1.12 µM (active) | 4.34 µM (active) | – | 0.67 µM (active) | > 59.6 µM (not active) | 4.72 µM (active) | 1.05 µM (active) | 36.1 µM (active) | O=[N+]([O-])c1c(O)nc(/C=C\c2ccc(O)c(O)c2)nc1O | – | – | –
– | – | – | – | – | – | – | – | – | – | – | – | CC1Cc2cc(S(=O)(=O)N3CCN(c4ccccc4)CC3)ccc2N1C(=O)C1CC1 (stereo not drawn) | 15.3 µM (active) | > 20 µM (inactive) | > 20 µM (inactive)
